These results are taken from patent publication US20140051576A1, “ACTIVE COMPOUND COMBINATIONS COMPRISING A (THIO)CARBOXAMIDE DERIVATIVE AND AN INSECTICIDAL OR ACARICIDAL OR NEMATICIDAL ACTIVE COMPOUND” (priority 2011, published 2014).

In one series the test system is Tetranychus urticae. Briefly: Tetranychus urticae - Test; OP-resistant (TETRUR spray application). The following applies: for Mortality in % after 6 days obs.: single active ingredient. The class given is in vivo. An excerpt:
Tetranychus urticae—Test; OP-Resistant (TETRUR Spray Application)
French beans (Phaseolus vulgaris) which are heavily infested with all stages of the two spotted spidermite (Tetranychus urticae), are sprayed with a preparation of the active ingredient at the desired concentration.

In a further series the test system is Spodoptera frugiperda. Briefly: whole plant or invertebrate. As to the method:
Spodoptera frugiperda—Test (SPODFR Spray Application)
Solvent: 78.0 parts by weight acetone • 1.5 parts by weight N,N-dimethylformamide Emulsifier: 0.5 parts by weight alkylarylpolyglycolether
Maize (Zea mais) leaf sections are sprayed with a preparation of the active ingredient of the desired concentration. Once dry, the leaf sections are infested with larvae of the fall armyworm (Spodoptera frugiperda).
After the specified period of time, the mortality in % is determined. 100% means that all caterpillars have been killed and 0% means that none of the caterpillars have been killed.

Another series deals with Phaedon cochleariae. Briefly: Phaedon cochleariae Larvae - Test (PHAECO spray application). The class given is in vivo. An excerpt: Phaedon cochleariae—Test; (PHAECO Spray Application)
Solvent: 78 parts by weight of acetone • 1.5 parts by weight of N,N-dimethylformamide Emulsifier: 0.5 parts by weight of alkylarylpolyglycolether
Once dry, the leaf discs are infested with mustard beetle larvae (Phaedon cochleariae).

Another series has as its system Myzus persicae. Briefly: Myzus persicae - Test (MYZUPE spray application). In kind it is in vivo. An excerpt: Myzus persicae—Test; (MYZUPE Spray Application)
Chinese cabbage (Brassica pekinesis) leaf—disks infected with all instars of the green peach aphid (Myzus persicae), are sprayed with a preparation of the active ingredient at the desired concentration.
100% means that all aphids have been killed; 0% means that none of the aphids have been killed.

The mark [1] stands for this setting: Tetranychus urticae, 48 h, read-out: Mortality in % after 2 days obs.
The mark [2] stands for this setting: Tetranychus urticae, 144 h, read-out: Mortality in % after 6 days obs.
Where [3] appears, read: Spodoptera frugiperda, 48 h, read-out: Mortality in % after 2 days obs.
The mark [4] stands for this setting: Spodoptera frugiperda, 144 h, read-out: Mortality in % after 6 days obs.
Setting [5] is: Phaedon cochleariae, 48 h, read-out: Mortality in % after 2 days obs.
The mark [6] stands for this setting: Phaedon cochleariae, 144 h, read-out: Mortality in % after 6 days obs.
[7] abbreviates: Myzus persicae, 24 h, read-out: Mortality in % after 1 day obs.
The mark [8] stands for this setting: Myzus persicae, 144 h, read-out: Mortality in % after 6 days obs.

Where two headings read alike, the source gives them in different places.

With `Cc1ccc(C(C)C)c(CN(C(=O)c2c(C(F)F)nn(C)c2F)C2CC2)c1` [A-12, N-cyclopropyl-3-(difluoromethyl)-5-fluoro-N-(2-isopropyl-5-methylbenzyl)-1-methyl-1H-pyrazole-4-carboxamide], the mortality at 100 g/ha in the series with Tetranychus urticae (setting [1]), with Tetranychus urticae (setting [2]), in the series with Spodoptera frugiperda (setting [3]), with Spodoptera frugiperda (setting [4]), in the series on Phaedon cochleariae (setting [5]) and in the series with Phaedon cochleariae (setting [6]) was 0% in each case. The mortality at 100 g/ha in the series on Myzus persicae (setting [7]) and in the series on Myzus persicae (setting [8]) was 0% each time. In addition, in the series with Tetranychus urticae (setting [1]), the mortality at 150 g/ha stood at 0%. Besides, the mortality at 200 g/ha with Spodoptera frugiperda (setting [3]), in the series with Phaedon cochleariae (setting [6]), with Myzus persicae (setting [7]) and with Myzus persicae (setting [8]) was 0% throughout.

Take `Cn1nc(C(F)F)c(C(=O)N(Cc2cc(Cl)ccc2C(F)(F)F)C2CC2)c1F` [A-15, N-[5-chloro-2-(trifluoromethyl)benzyl]-N-cyclopropyl-3-(difluoromethyl)-5-fluoro-1-methyl-1H-pyrazole-4-carboxamide]: the mortality at 500 g/ha in the series with Tetranychus urticae (setting [1]), in the series with Tetranychus urticae (setting [2]), in the series on Spodoptera frugiperda (setting [4]), in the series with Phaedon cochleariae (setting [5]), in the series with Phaedon cochleariae (setting [6]) and in the series on Myzus persicae (setting [7]) was 0% in each case. Further, in the series on Myzus persicae (setting [8]), the mortality at 500 g/ha is 0%.

As to `Cn1nc(C(F)F)c(C(=O)N(Cc2c(Cl)cccc2C(F)(F)F)C2CC2)c1F` [A-17, N-[2-chloro-6-(trifluoromethyl)benzyl]-N-cyclopropyl-3-(difluoromethyl)-5-fluoro-1-methyl-1H-pyrazole-4-carboxamide], the mortality at 100 g/ha in the series with Tetranychus urticae (setting [1]), with Tetranychus urticae (setting [2]), in the series on Spodoptera frugiperda (setting [3]), in the series on Spodoptera frugiperda (setting [4]), in the series on Phaedon cochleariae (setting [5]) and in the series on Phaedon cochleariae (setting [6]) was 0% throughout. Besides, the mortality at 100 g/ha with Myzus persicae (setting [7]) and in the series with Myzus persicae (setting [8]) was 0% in each case.

Consider `Cn1nc(C(F)F)c(C(=O)N(Cc2c(C(F)(F)F)ccc(Cl)c2F)C2CC2)c1F` [A-18, N-[3-chloro-2-fluoro-6-(trifluoromethyl)benzyl]-N-cyclopropyl-3-(difluoromethyl)-5-fluoro-1-methyl-1H-pyrazole-4-carboxamide], for which the mortality at 500 g/ha in the series on Tetranychus urticae (setting [1]), in the series on Tetranychus urticae (setting [2]), with Spodoptera frugiperda (setting [4]), in the series with Phaedon cochleariae (setting [5]), with Phaedon cochleariae (setting [6]) and in the series on Myzus persicae (setting [7]) was 0% in each case. Besides, the mortality at 500 g/ha in the series on Myzus persicae (setting [8]) was 0%.

Turning to `CCOP(=S)(OCC)Oc1nc(Cl)c(Cl)cc1Cl` [B-1B.10, Chlorpyrifos], the mortality at 20 g/ha with Tetranychus urticae (setting [1]) and in the series on Phaedon cochleariae (setting [6]) was 0% throughout. The mortality at 4 g/ha in the series on Tetranychus urticae (setting [2]) worked out at 0%; in the series with Spodoptera frugiperda (setting [4]), 67%. For the same compound, the mortality at 0.8 g/ha in the series on Myzus persicae (setting [8]) amounted to 0%.

As to `CC1(C)C(C=C(Cl)Cl)C1C(=O)OC(C#N)c1ccc(F)c(Oc2ccccc2)c1` (stereo not drawn) [B-3A.11, β-Cyfluthrin], the “Mortality in % after 6 days obs.” value with Tetranychus urticae (4 g/ha) is on record as 0%; in the series on Spodoptera frugiperda (0.16 g/ha), 50%; in the series with Phaedon cochleariae (0.16 g/ha), 50%; in the series on Phaedon cochleariae (0.8 g/ha) it was 67%; in the series on Myzus persicae (0.16 g/ha), 0%; in the series with Myzus persicae (0.8 g/ha) it was 70%. The “Mortality in % after 1 day obs.” value in the series with Myzus persicae (0.8 g/ha) was 70%.

With `CC1(C)[C@H](C(=O)O[C@H](C#N)c2cccc(Oc3ccccc3)c2)[C@@H]1C=C(Br)Br` [B-3A.21, Deltamethrin], the mortality at 4 g/ha in the series on Tetranychus urticae (setting [2]) came to 20%. In addition, the mortality at 0.16 g/ha in the series with Spodoptera frugiperda (setting [3]) came to 0%; with Phaedon cochleariae (setting [6]) it was 0%; in the series with Myzus persicae (setting [8]), 70%. In addition, the mortality at 0.032 g/ha with Spodoptera frugiperda (setting [4]) turned out to be 0%. Moreover, the mortality at 0.8 g/ha in the series with Spodoptera frugiperda (setting [4]) was found to be 33%; in the series on Phaedon cochleariae (setting [6]), 33%; in the series on Myzus persicae (setting [7]), 80%.

Take `CN/C(=N\[N+](=O)[O-])NCc1cnc(Cl)s1` [B-4A.2, Clothianidin]: the mortality at 20 g/ha with Tetranychus urticae (setting [1]) was 0%; with Tetranychus urticae (setting [2]), 0%; in the series on Spodoptera frugiperda (setting [4]), 0%; in the series with Phaedon cochleariae (setting [5]), 83%. Also, the mortality at 4 g/ha in the series with Tetranychus urticae (setting [2]), in the series on Phaedon cochleariae (setting [6]) and in the series with Myzus persicae (setting [7]) was 0% each time.

With `CNC(=O)c1cc(C#N)cc(C)c1NC(=O)c1cc(Br)nn1-c1ncccc1Cl` [B-26.2, Cyantraniliprole (Cyazypyr)], the “Mortality in % after 6 days obs.” value in the series with Tetranychus urticae (20 g/ha) is reported as 0%; in the series on Spodoptera frugiperda (0.16 g/ha) it was 0%; with Phaedon cochleariae (0.8 g/ha) it was 67%; in the series with Myzus persicae (0.8 g/ha), 70%. In the series with Phaedon cochleariae (0.8 g/ha), the “Mortality in % after 2 days obs.” value is given as 0%. In addition, the “Mortality in % after 1 day obs.” value in the series with Myzus persicae (0.8 g/ha) was 0%.

On to `O=C1C=C(N(Cc2ccc(Cl)nc2)CC(F)F)CO1` [B-27.16, 4-{[(6-chloropyridin-3-yl)methyl](2,2-difluoroethyl)-amino}furan-2(5H)-one], for which the mortality at 100 g/ha is 0% in the series on Tetranychus urticae (setting [1]), 0% with Tetranychus urticae (setting [2]), 50% with Phaedon cochleariae (setting [5]) and 80% in the series with Myzus persicae (setting [7]). Further, the mortality at 20 g/ha in the series on Spodoptera frugiperda (setting [4]) and in the series on Phaedon cochleariae (setting [6]) was 0% throughout. Moreover, the mortality at 4 g/ha with Myzus persicae (setting [7]) was 0%.

With Acetamiprid [B-4A.1], the entries for the “Mortality in % after 2 days obs.” value in the series with Tetranychus urticae (20 g/ha) and in the series on Phaedon cochleariae (20 g/ha) were 0% and 50%, respectively. The “Mortality in % after 6 days obs.” value with Spodoptera frugiperda (20 g/ha) and with Phaedon cochleariae (100 g/ha) was 0% in each case. In addition, the “Mortality in % after 1 day obs.” value with Myzus persicae (0.8 g/ha) came to 70%.

Take Fipronil [B-2B.2]: the results for the “Mortality in % after 6 days obs.” value in the series with Tetranychus urticae (100 g/ha), with Phaedon cochleariae (0.16 g/ha) and in the series with Myzus persicae (20 g/ha) were 0%, 50% and 0%, respectively. Further, the results for the “Mortality in % after 2 days obs.” value in the series on Spodoptera frugiperda (100 g/ha), in the series with Phaedon cochleariae (0.8 g/ha) and with Phaedon cochleariae (4 g/ha) were 67%, 33% and 67%, respectively.

For Transfluthrin [B-3A.46], the “Mortality in % after 6 days obs.” value with Tetranychus urticae (100 g/ha) amounted to 0%; in the series on Spodoptera frugiperda (0.8 g/ha), 33%; in the series with Spodoptera frugiperda (4 g/ha), 33%; in the series on Spodoptera frugiperda (20 g/ha) it was 50%; with Phaedon cochleariae (4 g/ha) it was 0%; in the series on Phaedon cochleariae (20 g/ha), 0%. For the same compound, the “Mortality in % after 6 days obs.” value in the series with Myzus persicae (20 g/ha) is on record as 0%. Further, the “Mortality in % after 2 days obs.” value with Phaedon cochleariae (100 g/ha) was 67%. The entries for the “Mortality in % after 1 day obs.” value in the series with Myzus persicae (20 g/ha) and in the series with Myzus persicae (100 g/ha) were 0% and 80%, respectively.
